Test results reported in publication PMC2409523, “Hormonal impact of the 17α-hydroxylase/C17,20-lyase inhibitor abiraterone acetate (CB7630) in patients with prostate cancer” (British Journal of Cancer, 2004).

What was measured:
testosterone synthesis [1] = experiment: Study B: single dose study in noncastrate males with prostate cancer, serum hormone levels; type: in vivo, human
Experimental: This was a single dose study in noncastrate males (testosterone level ⩾9.0 nmol l^−1) to determine the dose of abiraterone acetate that was sufficient to cause suppression of testosterone synthesis to castrate levels (⩽2.0 nmol l^−1).
This was a single-centre, open-label, phase one, single-dose study in which sequential cohorts of three noncastrate patients were to be treated at four dose levels: 200, 500, 650 and 800 mg. The starting dose of 200 mg was chosen when the results of study A were available.
All patients were required to have a normal testosterone level prior to study entry (i.e. ⩾9.0 nmol l^−1) as well as normal gonadotrophin levels (Luteinising Hormone (LH) ⩽13 IU l^−1).
(§1) Serum samples for endocrine analysis were obtained at 0, 2, 4, 8 and 24 h on a single day in the week prior to treatment commencement and then on Days 1, 2, 3, 4 and 7. As the duration of testosterone suppression was longer than originally anticipated, additional samples were added on Days 10, 14 and 21. The serum samples were analysed for testosterone, cortisol, 17 α-hydroxyprogesterone (17HP), androstenedione, LH and follicle-stimulating hormone (FSH) using commercially available kits. However, the DPC Coat-a-count kit for testosterone was sensitised using a larger volume of sample/standard and extension of the standard curve. […] All endocrine analyses were conducted by radioimmunoassay except for LH and FSH, which were by enzyme immunoassay.

testosterone synthesis [2] = experiment: Study A: single dose study in castrate males with prostate cancer, serum hormone levels; type: in vivo, human
Experimental: Significant suppression was defined as either testosterone <0.14 nmol l^−1 in individual patients with a pretreatment value of <0.6 nmol l^−1 or a ⩾75% reduction in individual patients with a pretreatment value of ⩾0.6 nmol l^−1.
This was a single-centre, open-label, phase one, single-dose study in which sequential cohorts of three medically or surgically castrate patients were to receive treatment at five dose levels: starting at 10 mg and increasing to 30, 100, 200 and 500 mg. […] A confirmatory testosterone level of between 0.2 and 2.0 nmol l^−1 was also required.
as §1

[3] = biological target: 17α-hydroxylase/C17,20-lyase; set-up: method as in Barrie et al, 1997; Potter et al, 1995; settings: inhibition of the 17α-hydroxylase/C17,20-lyase enzyme; ref Barrie et al, 1997; Potter et al, 1995; read-out: Kiapp; cited from earlier work
[4] = Pharmacokinetics in patient plasma (LC-MS); type: in vivo, human; settings: for Mean AUC: across all three studies
Experimental: Sample extracts were analysed by a fully validated liquid chromatography mass spectrometry method. The instrument consisted of Wisp Model 717 autosampler including a Model 600MS system controller with a quaternary U6K LC pump. A Finnigan MAT TSQ 700 triple quadrupole mass spectrometer was used as the detection system, together with Finnigan MAT ICIS and ICL software for data capture and processing (ThermoQuest Ltd, San Jose, CA, USA). The separation of analytes was performed on a Supelcosil LC-ABZ (5 μm, 250 × 4.6 mm) analytical column protected by a guard column (Supelco, Bellefonte, PA, USA). The mobile phase consisted of 570 ml of 20 mM ammonium acetate solution, 100 ml tetrahydrofuran and 1330 ml acetonitrile and was delivered at a flow rate of 1 ml min^−1 throughout the system. Column eluant was subjected to electrospray ionisation and monitored by selected ion monitoring (SIM) of protonated pseudo-molecular ions of authentic standards of abiraterone acetate and abiraterone, and GP488 (an analogue of abiraterone used as internal standard). For SIM, the scan width was 0.25 and the total scan time was 2.99 s. Also, heated capillary temperature=250°C, spray voltage=4.5 kV, collision offset=−49.9 V and electron multiplier voltage=1200 eV. Samples were extracted as follows: 50 μl of acetonitrile and 40 μl of 50 μM GP488 internal standard were added to 500 μl of patient plasma. […] The dried residue was reconstituted by vortexing in 150 μl of acetonitrile and transferred into autosampler vials. Aliquots (100 μl) of these samples were injected onto the LC column. […] A comprehensive PK profile (Cmax, Tmax, T1/2α T1/2 and Kabs) was determined for each patient. Pharmacokinetic parameters were evaluated using WinNonLin Software® and were conducted at The Institute of Cancer Research (Sutton). Blood was sampled for analysis of abiraterone concentration prior to drug administration and at the following times on Day 1: 30 min, 1, 2, 4, 6, 8 and 12 h. In the multidose study, samples were also drawn prior to treatment on Days 2, 3, 4, 7, 8, 9, 10, 11 and 14 with additional samples on Days 21 and 28. Samples (7 ml) were collected into vacutainer tubes (BD, Rutherford, NJ, USA) containing EDTA and immediately centrifuged to separate the plasma. At least 2 ml of plasma was transferred into polypropylene tubes (NUNC) and frozen at –20° until analysis.

[5] = single oral dose 500 mg, noncastrate patients

C[C@]12CC[C@H](O)CC1=CC[C@@H]1[C@@H]2CC[C@]2(C)C(c3cccnc3)=CC[C@@H]12 [abiraterone, 17-(3-pyridyl)androsta-5,16-dien-3β-ol]
testosterone suppression (testosterone synthesis [1]; single oral dose 200 mg, first noncastrate patient): No testosterone suppression | reduction in testosterone level from baseline (testosterone synthesis [1]; single oral dose 500 mg, all three noncastrate patients): more than 50% | recovery of LH to pretreatment levels (testosterone synthesis [1]; [5]): ≤ 10 days | recovery of testosterone to pretreatment levels after nadir (testosterone synthesis [1]; [5]): 6 to 9 days | time of testosterone nadir (testosterone synthesis [1]; [5]): second day after therapy | rise in LH levels (testosterone synthesis [1]; single oral dose 500 mg, noncastrate patients, maximal on Day 3): 47–75% | serum cortisol level (testosterone synthesis [2]; one patient at 500 mg, Day 1, baseline 409 nmol l^−1, felt inconsistent with suppression due to drug): 81 nmol/L | reduction in testosterone (testosterone synthesis [2]; single oral dose 200 mg, one castrate patient, within the first 24 h): 75% | levels of 17-hydroxyprogesterone (testosterone synthesis [2]; single oral dose 500 mg, castrate males): no corresponding reduction | mean androstenedione levels (testosterone synthesis [2]; single oral dose 500 mg, castrate males, around Day 2): reduction in mean androstenedione levels | patients with reduction in testosterone to the target level (testosterone synthesis [2]; single oral dose 500 mg, first cohort of three castrate patients, target <0.14 nmol l^−1 or ⩾75% reduction): all three patients | patients with target testosterone suppression (testosterone synthesis [2]; single oral dose 500 mg, three additional castrate patients): one of these patients | days over which testosterone suppression was sustained (testosterone synthesis [2]; single oral dose 500 mg, two of the three castrate patients, post-therapy): 2 to 5 days | effect on testosterone (testosterone synthesis [2]; single oral dose 10, 30 and 100 mg, castrate males): no consistent effect | Ki [3]: 0.5 nM | plasma levels of abiraterone ([4]; all doses greater than or equal to 200 mg): Detectable levels | Mean AUC ([4]; dose 200 mg): 0.31 µM·h | Mean AUC ([4]; dose 500 mg): 1.22 µM·h | Mean AUC ([4]; dose 800 mg): 5.6 µM·h
